According to publication PMC8776995 (Frontiers in Chemistry, 2022):
Several values for one entry are separate records, joined by “and”; a condition that tells them apart may be missing. Identical values can stand only once.

How the values were obtained:
A549 cells = assay: CCK-8 antiproliferation assay, A549; conditions: for Inhibitory efficacy: A549 cells
PC-9 cells = assay: CCK-8 antiproliferation assay, PC-9; conditions: for Inhibitory efficacy: single repeats (Repeat 1-3), given as fraction
Protocol: The compounds were dissolved in DMSO to make a 20 μM stock solution and diluted to the concentration of working solutions with complete growth medium before administration.
Cells were seeded in 96-well plates: 3,000–5,000 cells/well in 100 ul. One day after seeding, the test compounds at concentration between 1.0 and 16.0 μ M or 0.1% DMSO (as control) were added to cells in triplicate. 48 h later, CCK-8 was added and incubated the plate for 1–4 h in the incubator. The absorbance at 450 nm were measured using a microplate reader (Bio-Tek).

wild-type EGFR = wild-type EGFR (Homo sapiens, UniProt P00533); assay: EGFR kinase assay (ELISA); conditions: for A450: raw ELISA absorbance
Sequence of wild-type EGFR (P00533 25-1210): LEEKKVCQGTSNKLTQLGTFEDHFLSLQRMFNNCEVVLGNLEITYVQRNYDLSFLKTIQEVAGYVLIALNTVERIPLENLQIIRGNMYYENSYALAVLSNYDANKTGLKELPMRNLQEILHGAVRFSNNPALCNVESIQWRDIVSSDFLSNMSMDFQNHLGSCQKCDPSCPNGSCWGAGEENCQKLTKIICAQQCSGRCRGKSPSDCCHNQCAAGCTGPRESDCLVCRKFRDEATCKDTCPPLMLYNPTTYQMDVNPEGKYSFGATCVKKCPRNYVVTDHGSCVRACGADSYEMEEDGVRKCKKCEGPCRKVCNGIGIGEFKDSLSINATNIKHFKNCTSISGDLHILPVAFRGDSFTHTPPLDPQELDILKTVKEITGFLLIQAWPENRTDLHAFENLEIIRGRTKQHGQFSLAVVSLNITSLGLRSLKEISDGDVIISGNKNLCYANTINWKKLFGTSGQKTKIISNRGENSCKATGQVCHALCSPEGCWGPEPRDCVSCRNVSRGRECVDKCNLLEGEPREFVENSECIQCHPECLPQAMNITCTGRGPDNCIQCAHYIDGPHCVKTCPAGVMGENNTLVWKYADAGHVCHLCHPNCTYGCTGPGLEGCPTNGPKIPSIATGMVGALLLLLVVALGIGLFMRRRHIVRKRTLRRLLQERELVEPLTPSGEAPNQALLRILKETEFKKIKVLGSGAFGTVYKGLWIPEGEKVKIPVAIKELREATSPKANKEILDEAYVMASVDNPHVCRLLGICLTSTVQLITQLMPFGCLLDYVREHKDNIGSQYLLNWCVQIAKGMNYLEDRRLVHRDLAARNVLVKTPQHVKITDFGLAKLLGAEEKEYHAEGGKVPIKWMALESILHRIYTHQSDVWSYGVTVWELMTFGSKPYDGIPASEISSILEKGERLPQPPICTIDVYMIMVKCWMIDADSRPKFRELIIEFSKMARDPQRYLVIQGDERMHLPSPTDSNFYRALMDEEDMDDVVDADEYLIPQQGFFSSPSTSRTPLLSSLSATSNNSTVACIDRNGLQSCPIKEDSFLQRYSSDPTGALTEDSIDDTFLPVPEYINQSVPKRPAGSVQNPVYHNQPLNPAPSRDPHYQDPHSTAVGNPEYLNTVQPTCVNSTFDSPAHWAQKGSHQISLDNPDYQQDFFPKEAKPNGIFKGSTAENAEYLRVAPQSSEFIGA

H460 cells = assay: CCK-8 antiproliferation assay, H460; conditions: for Inhibitory efficacy: H460 cells
H1975 cells = assay: CCK-8 antiproliferation assay, H1975; conditions: for Inhibitory efficacy: H1975 cells
[1] = 1uM, given as fraction, Repeat 1-3
[2] = 2uM, given as fraction, Repeat 1-3
[3] = 4uM, given as fraction, Repeat 1-3
[4] = 8uM, given as fraction, Repeat 1-3
[5] = 16uM, given as fraction, Repeat 1-3

COCCOc1cc2ncnc(Nc3cccc(-c4cn(-c5cccc([N+](=O)[O-])c5)nn4)c3)c2cc1OCCOC [e13, [6,7-Bis-(2-methoxy-ethoxy)-quinazolin-4-yl]-{3-[1-(3-nitro-phenyl)-1H-[1,2,3]triazol-4-yl]-phenyl}-amine]
Inhibitory efficacy (A549 cells; [1]): 0.1588 and 0.1553
Inhibitory efficacy (A549 cells; [2]): 0.352 and 0.366
Inhibitory efficacy (A549 cells; [3]): 0.5268 and 0.5198
Inhibitory efficacy (A549 cells; [4]): 0.5749 and 0.6133
Inhibitory efficacy (A549 cells; [5]): 0.6238 and 0.6256
IC50 (A549 cells; Homo sapiens, A549, 48 h, read-out: IC50 (μM) A549, CCK-8, 48 h, average ± SD of three independent experiments): 5.95 ± 1.47 µM
inhibition at 1 µM (A549 cells; Homo sapiens, A549, read-out: Inhibitory efficacy, A549 cells, 1uM, given as fraction, Repeat 1-3): 8.71%
inhibition at 2 µM (A549 cells; Homo sapiens, A549, read-out: Inhibitory efficacy, A549 cells, 2uM, given as fraction, Repeat 1-3): 36.9%
inhibition at 4 µM (A549 cells; Homo sapiens, A549, read-out: Inhibitory efficacy, A549 cells, 4uM, given as fraction, Repeat 1-3): 44.6%
inhibition at 8 µM (A549 cells; Homo sapiens, A549, read-out: Inhibitory efficacy, A549 cells, 8uM, given as fraction, Repeat 1-3): 51.1%
inhibition at 16 µM (A549 cells; Homo sapiens, A549, read-out: Inhibitory efficacy, A549 cells, 16uM, given as fraction, Repeat 1-3): 56.8%
IC50 (PC-9 cells; Homo sapiens, PC-9, 48 h, read-out: IC50 (μM) PC-9): 22.6 ± 1.16 µM
inhibition at 8 µM (PC-9 cells; Homo sapiens, PC-9, read-out: Inhibitory efficacy, PC-9, 8uM, single repeats (Repeat 1-3), given as fraction): 12.1%
inhibition at 16 µM (PC-9 cells; Homo sapiens, PC-9, read-out: Inhibitory efficacy, PC-9, 16uM, single repeats (Repeat 1-3), given as fraction): 28.6%
Inhibitory efficacy (PC-9 cells; PC-9, 8uM, 8 µM): 0.1077 and 0.1459
Inhibitory efficacy (PC-9 cells; PC-9, 16uM, 16 µM): 0.2884 and 0.3336
IC50 (wild-type EGFR; IC50 (μM) EGFR, ELISA, 3 μmol/L ATP): 4.74 µM
inhibition at 100 fM (wild-type EGFR; concentration 0.0001 nM (reference for normalisation), one value per replicate column): 0%
Inhibition (wild-type EGFR; concentration 0.03 nM, one value per replicate column, 3e-05 µM): 3.252
Inhibition (wild-type EGFR; concentration 0.3 nM, one value per replicate column, 0.0003 µM): 1.084 and 9.485
Inhibition (wild-type EGFR; concentration 3 nM, one value per replicate column, 0.003 µM): 4.065 and 14.0921
Inhibition (wild-type EGFR; concentration 30 nM, one value per replicate column, 0.03 µM): 5.691 and 21.1382
Inhibition (wild-type EGFR; concentration 300 nM, one value per replicate column, 0.3 µM): 10.0271 and 28.9973
inhibition at 3 µM (wild-type EGFR; concentration 3000 nM, one value per replicate column): 30.9%
Inhibition (wild-type EGFR; concentration 3000 nM, one value per replicate column, 3 µM): 29.5393
A450 (wild-type EGFR; concentration 0.0001 nM): 0.702 and 0.668
A450 (wild-type EGFR; concentration 0.03 nM): 0.702 and 0.656
A450 (wild-type EGFR; concentration 0.3 nM): 0.698 and 0.633
A450 (wild-type EGFR; concentration 3 nM): 0.687 and 0.616
A450 (wild-type EGFR; concentration 30 nM): 0.681 and 0.59
A450 (wild-type EGFR; concentration 300 nM): 0.665 and 0.561
A450 (wild-type EGFR; concentration 3000 nM): 0.588 and 0.559
A450 (wild-type EGFR; concentration 30000 nM): 0.333 and 0.299
Inhibitory efficacy (H460 cells; [3]): 0.3261 and 0.3299
Inhibitory efficacy (H460 cells; [4]): 0.4209 and 0.401
Inhibitory efficacy (H460 cells; [5]): 0.4769 and 0.494
IC50 (H460 cells; Homo sapiens, NCI-H460, 48 h, read-out: IC50 (μM) H460, CCK-8, 48 h, average ± SD of three independent experiments): 11.9 ± 3.63 µM
inhibition at 4 µM (H460 cells; Homo sapiens, NCI-H460, read-out: Inhibitory efficacy, H460 cells, 4uM, given as fraction, Repeat 1-3): 42.4%
inhibition at 8 µM (H460 cells; Homo sapiens, NCI-H460, read-out: Inhibitory efficacy, H460 cells, 8uM, given as fraction, Repeat 1-3): 54.8%
inhibition at 16 µM (H460 cells; Homo sapiens, NCI-H460, read-out: Inhibitory efficacy, H460 cells, 16uM, given as fraction, Repeat 1-3): 56.2%
melting point: 98 to 101 °C
Inhibitory efficacy (H1975 cells; [1]): 0.09975 and 0.197
Inhibitory efficacy (H1975 cells; [2]): 0.1652 and 0.1521
Inhibitory efficacy (H1975 cells; [3]): 0.1521 and 0.1128
Inhibitory efficacy (H1975 cells; [4]): 0.1633 and 0.2344
Inhibitory efficacy (H1975 cells; [5]): 0.1933 and 0.2774
IC50 (H1975 cells; Homo sapiens, NCI-H1975, 48 h, read-out: IC50 (μM) H1975, CCK-8, 48 h, average ± SD of three independent experiments): > 100 µM
inhibition at 1 µM (H1975 cells; Homo sapiens, NCI-H1975, read-out: Inhibitory efficacy, H1975 cells, 1uM, given as fraction, Repeat 1-3): 14.3%
inhibition at 2 µM (H1975 cells; Homo sapiens, NCI-H1975, read-out: Inhibitory efficacy, H1975 cells, 2uM, given as fraction, Repeat 1-3): 25.5%
inhibition at 4 µM (H1975 cells; Homo sapiens, NCI-H1975, read-out: Inhibitory efficacy, H1975 cells, 4uM, given as fraction, Repeat 1-3): 15%
inhibition at 8 µM (H1975 cells; Homo sapiens, NCI-H1975, read-out: Inhibitory efficacy, H1975 cells, 8uM, given as fraction, Repeat 1-3): 24.2%
inhibition at 16 µM (H1975 cells; Homo sapiens, NCI-H1975, read-out: Inhibitory efficacy, H1975 cells, 16uM, given as fraction, Repeat 1-3): 21%
